In patent publication US12459922B2 (Gilead Sciences, Inc., priority 2022, dated 2025) one finds EC50 data, which are given here for 23 compounds.

Usually EC50 stands for the concentration at which the effect is half-maximal.

In the test the test system is endogenous cellular STAT1 (phosphorylated at Tyr701) in NCI-H1373 cells. Kind of test: Phospho-STAT1 (Tyr701) LANCE Ultra TR-FRET Detection Assay. It counts as cell-based. Particulars: Homo sapiens, NCI-H1373, 48 h, phospho-STAT1 (Tyr701) induction, read-out: NH1373 pSTAT1 EC50. As for the experimental part:
Phospho-STAT1 (Tyr701 LANCE Ultra TR-FRET Detection Assay
d. LANCE Ultra phospho-STAT1 (Tyr701) kits are designed for the detection of phosphorylated STAT1 in cell lysates using a simple, homogeneous LANCE Ultra sandwich assay (Cat. #TRF4028M). This assay is intended for assessing compound induction of endogenous levels of cellular STAT1 (phosphorylated at Tyr701) in NCI-H1373 cells. The NCI-H1373 cells are cultured in RPMI 1640 media containing 10% heat inactivated FBS, GlutaMAX, 1% Penicillin-Streptomycin. An Echo acoustic liquid handler is used to transfer 60 nanoliters of compound dilutions using the Echo Qualified, 384-well polypropylene microplate clear flat bottom source plates into a Greiner (#781080) cell culture microplate. NCI-H1373 cells are seeded into these compound-spotted culture plates at 30,000 cells/well in a 60 uL volume in growth media. The plates are incubated in a 5% CO2 humidified incubator at 37° C. for 48 hours. […] After spinning the plate down at 300 rpm for 1 min, the plate is read on an EnVision plate reader set up for Eu3+ Cryptate and fluorescence emission is measured at two different wavelengths (665 nm and 620 nm). The HTRF ratio is then calculated […] for each well to determine the amount of pSTAT1 in the cell lysate, and the data is then normalized to 10 uM GS-1154611 positive and DMSO negative controls.
(In general: In TR-FRET formats the signal depends on donor and acceptor labels being close together.)

For `Cc1cn(C[C@@H]2CCC[C@H](Nc3cn[nH]c(=O)c3C(F)(F)F)C2)c(=O)c2cc(F)c(-c3ncc(C(F)(F)F)cn3)cc12` [Example 485, 7-fluoro-4-methyl-2-(((1R,3S)-3-((6-oxo-5-(trifluoromethyl)-1,6-dihydropyridazin-4-yl)amino)cyclohexyl)methyl)-6-(5-(trifluoromethyl)pyrimidin-2-yl)isoquinolin-1(2H)-one], the EC50 came to 5.46 nM.

With `C[C@@H]1C[C@@H](CCCn2cnc3cc(-c4ncc(C(F)(F)F)cn4)c(F)cc3c2=O)N(c2cn[nH]c(=O)c2C(F)(F)F)C1` [Example 176, 6-fluoro-3-[3-[(2R,4R)-4-methyl-1-[6-oxo-5-(trifluoromethyl)-1H-pyridazin-4-yl]pyrrolidin-2-yl]propyl]-7-[5-(trifluoromethyl)pyrimidin-2-yl]quinazolin-4-one], the EC50 turned out to be 186 nM.

For the compound `Nc1nc(-c2cc3ncn(CC[C@H]4CCC[C@@H]4Nc4cn[nH]c(=O)c4C(F)(F)F)c(=O)c3cc2F)ncc1Cl` [Example 449, 7-(4-amino-5-chloropyrimidin-2-yl)-6-fluoro-3-(2-((1R,2S)-2-((6-oxo-5-(trifluoromethyl)-1,6-dihydropyridazin-4-yl)amino)cyclopentyl)ethyl)quinazolin-4(3H)-one], the EC50 came to 6.42 nM.

On to `O=c1[nH]ncc(N[C@H]2CCC[C@@H](Cn3ccc4cc(-c5cnc(C(F)F)cn5)c(F)cc4c3=O)C2)c1C(F)(F)F` [Example 258, 6-(5-(difluoromethyl)pyrazin-2-yl)-7-fluoro-2-(((1R,3S)-3-((6-oxo-5-(trifluoromethyl)-1,6-dihydropyridazin-4-yl)amino)cyclohexyl)methyl)isoquinolin-1(2H)-one], for which the concentration giving a half-maximal response (EC50) came out at 31.7 nM.

For `[2H]C([2H])([2H])OC[C@@H](CCCn1ccc2cc(-c3ncc(C(F)F)cn3)c(F)cc2c1=O)Nc1cn[nH]c(=O)c1C(F)(F)F` [Example 428, 6-[5-(difluoromethyl)pyrimidin-2-yl]-7-fluoro-2-[(4R)-4-[[6-oxo-5-(trifluoromethyl)-1H-pyridazin-4-yl]amino]-5-(trideuteriomethoxy)pentyl]isoquinolin-1-one], the EC50 is 4.17 nM.

As for `O=c1[nH]ncc(N[C@H]2CCC[C@@H](Cn3ccc4cc(-c5cnc(OC(F)F)cn5)c(F)cc4c3=O)C2)c1C(F)(F)F` [Example 259, 6-(5-(difluoromethoxy)pyrazin-2-yl)-7-fluoro-2-(((1R,3S)-3-((6-oxo-5-(trifluoromethyl)-1,6-dihydropyridazin-4-yl)amino)cyclohexyl)methyl)isoquinolin-1(2H)-one], the EC50 is 183 nM.

On to `C[C@@H](CCCn1ccc2cc(-c3ccc(C(F)F)cn3)c(F)c(F)c2c1=O)Nc1cn[nH]c(=O)c1C(F)(F)F` [Example 51, (S)-6-(5-(difluoromethyl)pyridin-2-yl)-7,8-difluoro-2-(4-((6-oxo-5-(trifluoromethyl)-1,6-dihydropyridazin-4-yl)amino)pentyl)isoquinolin-1(2H)-one], for which the EC50 was found to be 44.9 nM.

With `C[C@@H](C[C@@H](O)Cn1ccc2cc(-c3ncc(C(F)(F)F)cn3)c(F)cc2c1=O)Nc1cn[nH]c(=O)c1C(F)(F)F` (single isomer, unassigned) [Example 480], the concentration giving a half-maximal response (EC50) worked out at 4.14 nM.

As to `O=c1[nH]ncc(N[C@H]2CCC[C@@H](Cn3cc(F)c4cc(-c5ncc(C(F)(F)F)cn5)c(F)cc4c3=O)C2)c1C(F)(F)F` [Example 481, 4,7-difluoro-2-(((1R,3S)-3-((6-oxo-5-(trifluoromethyl)-1,6-dihydropyridazin-4-yl)amino)cyclohexyl)methyl)-6-(5-(trifluoromethyl)pyrimidin-2-yl)isoquinolin-1(2H)-one], the concentration for a half-maximal effect (EC50) stood at 3.24 nM.

Take `COc1cnc(-c2cc3ncn(CCC[C@H](C)Nc4cn[nH]c(=O)c4C(F)(F)F)c(=O)c3cc2F)nc1N1CC(F)(F)C1` [Example 211]: the EC50 was determined as 28.3 nM.

In the case of `C[C@@H](CCCn1ccc2cc(-c3nc(N)c4c(n3)COC4)c(F)cc2c1=O)Nc1cn[nH]c(=O)c1C(F)(F)F` [Example 357, (S)-6-(4-amino-5,7-dihydrofuro[3,4-d]pyrimidin-2-yl)-7-fluoro-2-(4-((6-oxo-5-(trifluoromethyl)-1,6-dihydropyridazin-4-yl)amino)pentyl)isoquinolin-1(2H)-one], the EC50 amounted to 143 nM.

Regarding `Cn1nc(-c2cc3ccn(C[C@@H]4CCC[C@H](Nc5cn[nH]c(=O)c5C(F)(F)F)C4)c(=O)c3cc2F)cc1C(F)(F)F` [Example 491, 7-fluoro-6-[1-methyl-5-(trifluoromethyl)pyrazol-3-yl]-2-[[(1R,3S)-3-[[6-oxo-5-(trifluoromethyl)-1H-pyridazin-4-yl]amino]cyclohexyl]methyl]isoquinolin-1-one], the EC50 is 50.5 nM.

For `O=c1[nH]ncc(N[C@H](CCCn2ccc3cc(-c4nc5ccccn5n4)c(F)cc3c2=O)COC(F)F)c1C(F)(F)F` [Example 489, (R)-6-([1,2,4]triazolo[1,5-a]pyridin-2-yl)-2-(5-(difluoromethoxy)-4-((6-oxo-5-(trifluoromethyl)-1,6-dihydropyridazin-4-yl)amino)pentyl)-7-fluoroisoquinolin-1(2H)-one], the EC50 worked out at 0.51 nM.

In the case of `C[C@@H]1[C@H](O)CN1c1nc(-c2cc3ncn(CCC[C@H](C)Nc4cn[nH]c(=O)c4C(F)(F)F)c(=O)c3cc2F)ncc1C(F)(F)F` [Example 288, 6-fluoro-7-(4-((2R,3R)-3-hydroxy-2-methylazetidin-1-yl)-5-(trifluoromethyl)pyrimidin-2-yl)-3-((S)-4-((6-oxo-5-(trifluoromethyl)-1,6-dihydropyridazin-4-yl)amino)pentyl)quinazolin-4(3H)-one], the concentration for a half-maximal effect (EC50) is 10.5 nM.

Regarding `C[C@@H](CCCn1cnc2cc(-c3ncc(C4CC4)c(N)n3)c(F)cc2c1=O)Nc1cn[nH]c(=O)c1C(F)(F)F` [Example 65, 7-(4-amino-5-cyclopropyl-pyrimidin-2-yl)-6-fluoro-3-[(4S)-4-[[6-oxo-5-(trifluoromethyl)-1H-pyridazin-4-yl]amino]pentyl]quinazolin-4-one], the EC50 was determined as 29.2 nM.

As for `C[C@@H](CCCn1ccc2cc(-c3ncc(C(F)F)c(NCCO)n3)c(F)cc2c1=O)Nc1cn[nH]c(=O)c1C(F)(F)F` [Example 222, (S)-6-(5-(difluoromethyl)-4-((2-hydroxyethyl)amino)pyrimidin-2-yl)-7-fluoro-2-(4-((6-oxo-5-(trifluoromethyl)-1,6-dihydropyridazin-4-yl)amino)pentyl)isoquinolin-1(2H)-one], the half-maximal effective concentration (EC50) is 258 nM.

On to `O=c1[nH]ncc(N[C@H]2CCC[C@@H]2CCn2ccc3cc(-c4ncc(C(F)(F)F)cn4)c(F)cc3c2=O)c1C(F)(F)F` [Example 179, 7-fluoro-2-(2-((1R,2S)-2-((6-oxo-5-(trifluoromethyl)-1,6-dihydropyridazin-4-yl)amino)cyclopentyl)ethyl)-6-(5-(trifluoromethyl)pyrimidin-2-yl)isoquinolin-1(2H)-one], for which the EC50 amounted to 4.03 nM.

On to `Nc1nc(-c2cc3ncn(CCC[C@H](COC(F)F)Nc4cn[nH]c(=O)c4C(F)(F)F)c(=O)c3cc2F)ncc1C(F)(F)F` [Example 385, (R)-7-(4-amino-5-(trifluoromethyl)pyrimidin-2-yl)-3-(5-(difluoromethoxy)-4-((6-oxo-5-(trifluoromethyl)-1,6-dihydropyridazin-4-yl)amino)pentyl)-6-fluoroquinazolin-4(3H)-one], for which the EC50 stood at 13.3 nM.

For `C[C@@H](CCCn1ccc2cc(-c3ncc(-c4ccccc4F)cn3)c(F)cc2c1=O)Nc1cn[nH]c(=O)c1C(F)(F)F` [Example 336, (S)-7-fluoro-6-(5-(2-fluorophenyl)pyrimidin-2-yl)-2-(4-((6-oxo-5-(trifluoromethyl)-1,6-dihydropyridazin-4-yl)amino)pentyl)isoquinolin-1(2H)-one], the EC50 came to 95.1 nM.

Consider `C[C@@H](CCCn1ccc2cc(-n3cc(C(F)(F)F)cn3)ccc2c1=O)Nc1cn[nH]c(=O)c1C(F)(F)F` [Example 173, (S)-2-(4-((6-oxo-5-(trifluoromethyl)-1,6-dihydropyridazin-4-yl)amino)pentyl)-6-(4-(trifluoromethyl)-1H-pyrazol-1-yl)isoquinolin-1(2H)-one], for which the 50% effective concentration (EC50) is 270 nM.

Turning to `C[C@@H](CCCn1ccc2cc(-c3ncc4c(n3)NCCO4)c(F)cc2c1=O)Nc1cn[nH]c(=O)c1C(F)(F)F` [Example 118, 6-(7,8-dihydro-6H-pyrimido[5,4-b] [1,4]oxazin-2-yl)-7-fluoro-2-[(4S)-4-[[6-oxo-5-(trifluoromethyl)-1H-pyridazin-4-yl]amino]pentyl]isoquinolin-1-one], the concentration giving a half-maximal response (EC50) turned out to be 9.84 nM.

For `Cc1cnc(N)nc1-c1cc2ccn(CCC[C@H](C)Nc3cn[nH]c(=O)c3C(F)(F)F)c(=O)c2c(F)c1F` [Example 80, (S)-6-(2-amino-5-methylpyrimidin-4-yl)-7,8-difluoro-2-(4-((6-oxo-5-(trifluoromethyl)-1,6-dihydropyridazin-4-yl)amino)pentyl)isoquinolin-1(2H)-one], the EC50 turned out to be 479 nM.

Consider `Cc1nc(-c2cc3ccn(CCC[C@H](C)Nc4cn[nH]c(=O)c4C(F)(F)F)c(=O)c3cc2F)nc(N)c1Cl` [Example 319, (S)-6-(4-amino-5-chloro-6-methylpyrimidin-2-yl)-7-fluoro-2-(4-((6-oxo-5-(trifluoromethyl)-1,6-dihydropyridazin-4-yl)amino)pentyl)isoquinolin-1(2H)-one], for which the EC50 stood at 2.92 nM.
